Test results as given in patent US20260092054A1, “FUSED RING COMPOUND AND PHARMACEUTICAL CONTAINING SAME” (KAKEN PHARMACEUTICAL CO., LTD., priority 2022, published 2026).

Columns and labels:
human STAT6 = assay: Human STAT6 dependent reporter activity (IL-4 stimulated STAT6 reporter assay using STAT6-HEK293 cells); type: cell-based; conditions: Homo sapiens, IL-4 stimulation, luciferase activity, read-out: Inhibition rate (%); for inhibition at 0.1 µM: compound 0.1 μmol/L; for inhibition at 1 µM: compound 1 μmol/L
human STAT6/pIL-4Rα = biological target: T1, human STAT6/pIL-4Rα (Homo sapiens, UniProt P42226); assay: Binding inhibitory activity between human STAT6/pIL-4Rα by fluorescence polarization method; conditions: rhSTAT6 (123-658) / FAM-pIL-4Rα peptide
T1 construct: histidine tag
T1 sequence (P42226 123-658): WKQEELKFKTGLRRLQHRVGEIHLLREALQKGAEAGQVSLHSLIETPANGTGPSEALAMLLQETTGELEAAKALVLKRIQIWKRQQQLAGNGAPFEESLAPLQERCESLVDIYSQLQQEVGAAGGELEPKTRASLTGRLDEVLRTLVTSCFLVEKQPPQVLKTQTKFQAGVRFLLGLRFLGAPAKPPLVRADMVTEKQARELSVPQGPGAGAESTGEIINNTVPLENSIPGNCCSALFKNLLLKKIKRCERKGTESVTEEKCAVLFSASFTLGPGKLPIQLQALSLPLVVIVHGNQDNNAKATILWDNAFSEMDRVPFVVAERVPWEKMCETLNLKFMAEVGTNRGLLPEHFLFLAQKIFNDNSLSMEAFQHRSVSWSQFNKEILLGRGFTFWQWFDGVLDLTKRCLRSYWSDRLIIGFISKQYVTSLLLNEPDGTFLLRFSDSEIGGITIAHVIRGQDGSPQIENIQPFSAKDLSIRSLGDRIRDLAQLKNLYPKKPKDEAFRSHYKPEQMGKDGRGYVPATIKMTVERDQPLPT
How it was run: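 His-tagged human STAT6 (residues 123–658, E. coli-expressed) was preincubated with compound for 30 min at RT in the dark, in buffer e.g. 50 mM NaCl, 10 mM HEPES pH 7.0, 1 mM DTT, 1 mM EDTA, 0.01% NP-40. FAM-pIL-4Rα peptide was then added for 30 min. Fluorescence polarisation was read at 485/535 nm, with IC50 interpolated linearly between two points flanking 50%.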

Row | Compound | inhibition at 0.1 µM (human STAT6) [%] | inhibition at 1 µM (human STAT6) [%] | IC50 (human STAT6/pIL-4Rα) [nM]
1 | CCn1c(-c2ccc(N3CCOCC3=O)cc2)cc2cc(C(F)(F)F)cc(C(=O)Nc3cccc(C(N)=O)c3F)c21 [Ex. 66] | 58 | 99 | 320
2 | CCn1c(-c2ccc(-n3c(C)nn(C)c3=O)cc2)cc2cncc(C(=O)Nc3ccc(F)c(C(N)=O)c3)c21 [Ex. 216] | 7 | 42 | 430
3 | CCn1c(-c2ccc(-n3c(C)nn(C)c3=O)nc2)cc2cccc(C(=O)Nc3ccc(F)c(C(N)=O)c3)c21 [Ex. 151] | 26 | 77 | 610
4 | Cn1ncn(-c2ccc(-c3cc4cc(C(F)(F)F)cc(C(=O)Nc5ccc(F)c(C(N)=O)c5)c4[nH]3)cc2)c1=O [Ex. 46] | 81 | 100 | 450
5 | CCn1c(-c2ccc(-n3c(C)nn(C)c3=O)cc2)cc2cc(C(F)(F)F)cc(C(=O)Nc3cccc(OC)n3)c21 [Ex. 102] |  | 60 | 2820
6 | CCn1c(-c2ccc(-n3c(C)nn(C)c3=O)cc2)cc2c(C(F)(F)F)ccc(C(=O)Nc3cccc(C(N)=O)c3F)c21 [Ex. 49] | 97 | 100 | 310
7 | Cc1nn(C)c(=O)n1-c1ccc(-c2cc3cc(C(F)(F)F)cc(C(=O)Nc4cccc(C(N)=O)c4)c3n2CC2(C#N)CC2)cc1 [Ex. 126] | 62 |  | 240
8 | CCn1c(-c2ccc(-n3c(C)nn(C)c3=O)cc2)cc2ccnc(C(=O)Nc3cccc(C(=O)NCC#N)c3F)c21 [Ex. 190] | 66 | 97 | 410
9 | Cc1nn(C)c(=O)n1-c1ccc(-c2cc3ccnc(C(=O)Nc4cccc(C(=O)Nc5cccn(C)c5=O)c4)c3n2CC2CC2)cc1 [Ex. 199] | 67 |  | 270
10 | CCn1c(-c2ccc(N3CCOCC3=O)cc2)cc2cc(C(F)(F)F)cc(C(=O)Nc3ccc(F)c(C(N)=O)c3)c21 [Ex. 31] | 80 | 97 | 460
11 | Cc1nn(C)c(=O)n1-c1ccc(-c2cc3ccnc(C(=O)Nc4ccc(F)c(C(N)=O)c4)c3n2C)cc1 [Ex. 108] | 52 | 97 | 460
12 | CCn1c(-c2ccc(N3C(=O)C(C)CC3C)cc2)nc2cc(C(F)(F)F)cc(C(=O)Nc3cccc(C(N)=O)c3)c21 (single isomer, unassigned) [Ex. 12] | 47 | 94 | 350
13 | COCCn1c(-c2ccc(-n3c(C)nn(C)c3=O)cc2)cc2ccnc(C(=O)Nc3cccc(C(=O)Nc4cc(Cl)n(C)n4)c3)c21 [Ex. 202] | 95 |  | 340
14 | Cc1nn(C)c(=O)n1-c1ccc(-c2cc3cc(C(F)(F)F)nc(C(=O)Nc4ccc(F)c(C(N)=O)c4)c3n2C)cc1 [Ex. 92] | 74 | 99 | 230
15 | COCCn1c(-c2ccc(-n3c(C)nn(C)c3=O)cc2)cc2cc(C(F)(F)F)nc(C(=O)Nc3cccc(C(N)=O)c3)c21 [Ex. 91] | 67 | 99 | 250
16 | COCCn1c(-c2ccc(-n3c(C)nn(C)c3=O)cc2)cc2cc(C(F)(F)F)cc(COc3cccc(C(N)=O)c3)c21 [Ex. 138] | 35 | 93 | 370
17 | CCn1c(-c2ccc(-n3ncn(C)c3=O)cc2)cc2ccnc(C(=O)Nc3ccc(F)c(C(N)=O)c3)c21 [Ex. 144] | 48 | 99 | 370
18 | CCn1c(-c2ccc(-n3cnn(C)c3=O)cc2)cc2cc(Br)cc(C(=O)Nc3ccc(F)c(C(N)=O)c3)c21 [Ex. 9] | 10 | 76 | 450

Row | Compound | inhibition at 0.1 µM (human STAT6) [%] | inhibition at 1 µM (human STAT6) [%] | IC50 (human STAT6/pIL-4Rα) [nM]
19 | CCn1c(-c2ccc(-n3c(C)nn(C)c3=O)cc2)cc2cc(C(F)(F)F)cc(C(=O)Nc3cccc(C(=O)NCC(=O)N(C)C)c3)c21 [Ex. 170] | 49 | 99 | 400
20 | CCn1c(-c2ccc(-n3cccn3)cc2)nc2cc(Br)cc(C(=O)Nc3cccc(C(N)=O)c3)c21 [Ex. 5] | 8 | 63 | 660
21 | CCn1c(-c2ccc3c(c2)CCN3C(C)=O)nc2cc(Br)cc(C(=O)Nc3cccc(C(N)=O)c3)c21 [Ex. 8] | 2 | 43 | 410
22 | CCn1c(-c2ccc(N3C(=O)C(C)CC3C)cc2)cc2cc(C(F)(F)F)nc(C(=O)Nc3cccc(C(N)=O)c3)c21 (stereo not drawn) [Ex. 134] | 48 | 99 | 370
23 | CCn1c(-c2ccc(-n3c(C)nn(C)c3=O)cc2)cc2c(C(F)(F)F)ccc(C(=O)Nc3ccc(F)c(C(N)=O)c3)c21 [Ex. 30] | 76 | 100 | 270
24 | CCn1c(-c2ccc(-n3c(C)nn(C)c3=O)cn2)cc2cc(C(F)(F)F)cc(C(=O)Nc3cccc(C(N)=O)c3F)c21 [Ex. 19] | 42 | 98 | 360
25 | CCn1c(-c2ccc(-n3c(C)nn(C)c3=O)cc2)c(I)c2cncc(C(=O)Nc3ccc(F)c(C(N)=O)c3)c21 [Ex. 140] | 3 | 45 | 2720
26 | COCCn1c(-c2ccc(-n3c(C)nn(C)c3=O)cc2)cc2cc(C(F)(F)F)cc(C(=O)Nc3nccs3)c21 [Ex. 85] | 11 | 73 | 340
27 | CCn1c(-c2ccc(-n3cnn(C)c3=O)cc2)cc2cc(C(F)(F)F)cc(C(=O)Nc3cccc(C(N)=O)c3)c21 [Ex. 35] | 100 |  | 350
28 | COCCn1c(-c2ccc(-n3c(C)nn(C)c3=O)cc2)cc2cc(C(F)(F)F)cc(CNc3cccc(C(N)=O)c3)c21 [Ex. 139] | 8 | 69 | 1940
29 | CCn1c(-c2ccc(-n3c(C)nn(C)c3=O)cc2)cc2ccnc(C(=O)Nc3cccc(C(=O)Nc4cc(C)cn(C)c4=O)c3)c21 [Ex. 165] | 86 | 100 | 200
30 | CCn1c(-c2ccc(NC(C)=O)cc2)cc2ccnc(C(=O)Nc3ccc(F)c(C(=O)NCC#N)c3)c21 [Ex. 149] | 25 | 84 | 330
31 | CCn1c(-c2ccc(-n3c(C)nn(C)c3=O)cn2)cc2cc(C(F)(F)F)cc(C(=O)Nc3ccc(F)c(C(N)=O)c3)c21 [Ex. 61] | 93 | 100 | 470
32 | Cc1nn(C)c(=O)n1-c1ccc(-c2cc3ccnc(C(=O)Nc4cccc(C(N)=O)c4)c3n2CC2CCC2)cc1 [Ex. 120] | 74 |  | 500
33 | CCn1c(-c2ccc(-n3c(C)nn(C)c3=O)cc2)cc2nccc(C(=O)Nc3cccc(C(N)=O)c3F)c21 [Ex. 59] | 83 | 99 | 390
34 | CCn1c(-c2ccc(-n3c(C(F)F)nn(C)c3=O)cc2)cc2cc(C(F)(F)F)cc(C(=O)Nc3ccc(F)c(C(N)=O)c3)c21 [Ex. 154] | 52 | 99 | 280
35 | COCCn1c(-c2ccc(-n3c(C)nn(C)c3=O)cc2)cc2cc(C(F)(F)F)cc(C(=O)Nc3cccc(CO)c3)c21 [Ex. 115] | 54 | 95 | 430
